Measured values taken from ChEMBL document CHEMBL2074574, “The interaction and transport of beta-lactam antibiotics with the cloned rat renal organic anion transporter 1” (J Pharmacol Exp Ther, 1999).
pKi: −log10 of the molar value. One block for each compound: values may come before it.

What was measured:
[1] = biological target: T1, Solute carrier family 22 member 6 (Rattus norvegicus, UniProt O35956); test: TP_TRANSPORTER: inhibition of PAH uptake (PAH: 2 uM, Nafcillin: 2000 uM) in Xenopus laevis oocytes; assay type: functional, cell-based; conditions: oocyte
T1 sequence (O35956 whole entry): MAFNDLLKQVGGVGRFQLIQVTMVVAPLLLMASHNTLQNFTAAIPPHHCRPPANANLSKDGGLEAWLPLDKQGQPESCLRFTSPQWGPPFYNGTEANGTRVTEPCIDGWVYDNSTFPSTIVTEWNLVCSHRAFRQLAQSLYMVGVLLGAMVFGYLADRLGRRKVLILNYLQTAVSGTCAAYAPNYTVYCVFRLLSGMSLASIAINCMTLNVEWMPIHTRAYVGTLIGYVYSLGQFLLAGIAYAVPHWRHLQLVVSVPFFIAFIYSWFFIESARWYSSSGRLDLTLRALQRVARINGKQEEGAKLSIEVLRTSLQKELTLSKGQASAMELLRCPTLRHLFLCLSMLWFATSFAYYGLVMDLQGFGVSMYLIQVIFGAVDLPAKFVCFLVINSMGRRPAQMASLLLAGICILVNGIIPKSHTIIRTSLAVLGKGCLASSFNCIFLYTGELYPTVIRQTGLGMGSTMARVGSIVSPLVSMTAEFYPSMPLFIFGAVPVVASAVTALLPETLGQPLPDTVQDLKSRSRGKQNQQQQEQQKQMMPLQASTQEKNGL

[2] = biological target: T1, Solute carrier family 22 member 6; test: TP_TRANSPORTER: inhibition of PAH uptake (PAH: 2 uM, Norfloxacin: 2000 uM) in Xenopus laevis oocytes; assay type: functional, cell-based; conditions: oocyte
[3] = biological target: T1, Solute carrier family 22 member 6; test: TP_TRANSPORTER: inhibition of PAH uptake (PAH: 2 uM, Cinoxacin: 2000 uM) in Xenopus laevis oocytes; assay type: functional, cell-based; conditions: oocyte
[4] = biological target: T1, Solute carrier family 22 member 6; test: TP_TRANSPORTER: inhibition of PAH uptake (PAH: 2 uM, OFLX: 2000 uM) in Xenopus laevis oocytes; assay type: functional, cell-based; conditions: oocyte
[5] = biological target: T1, Solute carrier family 22 member 6; test: TP_TRANSPORTER: inhibition of PAH uptake (PAH: 2 uM, Gentamicin: 2000 uM) in Xenopus laevis oocytes; assay type: functional, cell-based; conditions: oocyte
[6] = biological target: T1, Solute carrier family 22 member 6; test: TP_TRANSPORTER: inhibition of PAH uptake (PAH: 2 uM, Vancomycin: 2000 uM) in Xenopus laevis oocytes; assay type: functional, cell-based; conditions: oocyte
[7] = biological target: T1, Solute carrier family 22 member 6; test: TP_TRANSPORTER: inhibition of PAH uptake in Xenopus laevis oocytes; assay type: functional, cell-based, Oocyte
[8] = biological target: T1, Solute carrier family 22 member 6; test: TP_TRANSPORTER: inhibition of PAH uptake (PAH: 2 uM, Cloxacillin: 2000 uM) in Xenopus laevis oocytes; assay type: functional, cell-based; conditions: oocyte
[9] = biological target: T1, Solute carrier family 22 member 6; test: TP_TRANSPORTER: inhibition of PAH uptake (PAH: 2 uM, Ceftazidime: 2000 uM) in Xenopus laevis oocytes; assay type: functional, cell-based; conditions: oocyte
[10] = biological target: T1, Solute carrier family 22 member 6; test: TP_TRANSPORTER: inhibition of PAH uptake (PAH: 2 uM, Cefsulodin: 2000 uM) in Xenopus laevis oocytes; assay type: functional, cell-based; conditions: oocyte
[11] = biological target: T1, Solute carrier family 22 member 6; test: TP_TRANSPORTER: inhibition of PAH uptake (PAH: 2 uM, Amoxicillin: 2000 uM) in Xenopus laevis oocytes; assay type: functional, cell-based; conditions: oocyte
[12] = biological target: T1, Solute carrier family 22 member 6; test: TP_TRANSPORTER: inhibition of PAH uptake (PAH: 2 uM, Piperacillin: 2000 uM) in Xenopus laevis oocytes; assay type: functional, cell-based; conditions: oocyte
[13] = biological target: T1, Solute carrier family 22 member 6; test: TP_TRANSPORTER: inhibition of PAH uptake (PAH: 2 uM, Streptomycin: 2000 uM) in Xenopus laevis oocytes; assay type: functional, cell-based; conditions: oocyte
[14] = biological target: T1, Solute carrier family 22 member 6; test: TP_TRANSPORTER: inhibition of PAH uptake (PAH: 2 uM, Chloramphenicol: 2000 uM) in Xenopus laevis oocytes; assay type: functional, cell-based; conditions: oocyte

Compound: CCOc1ccc2ccccc2c1C(=O)N[C@@H]1C(=O)N2[C@@H]1SC(C)(C)[C@@H]2C(=O)O [NAFCILLIN]
Activity [1]: inhibitor [(at a rough estimate) <5 % of control]

Activity [2]: is not an inhibitor [-]
Compound: CCn1cc(C(=O)O)c(=O)c2cc(F)c(N3CCNCC3)cc21 [NORFLOXACIN]

Compound: CCn1nc(C(=O)O)c(=O)c2cc3c(cc21)OCO3 [CINOXACIN]
Activity [3]: inhibitor [(at a rough estimate) 5 % of control]

Activity [4]: is not an inhibitor [-]
Compound: CC1COc2c(N3CCN(C)CC3)c(F)cc3c(=O)c(C(=O)O)cn1c23 (centres undefined) [OFLOXACIN]

Compound: GENTAMICIN
Activity [5]: is not an inhibitor [-]

Compound: CN[C@H](CC(C)C)C(=O)N[C@H]1C(=O)N[C@@H](CC(N)=O)C(=O)N[C@H]2C(=O)N[C@H]3C(=O)N[C@H](C(=O)N[C@H](C(=O)O)c4cc(O)cc(O)c4-c4cc3ccc4O)[C@H](O)c3ccc(c(Cl)c3)Oc3cc2cc(c3O[C@@H]2O[C@H](CO)[C@@H](O)[C@H](O)[C@H]2O[C@H]2C[C@](C)(N)[C@H](O)[C@H](C)O2)Oc2ccc(cc2Cl)[C@H]1O [VANCOMYCIN]
Activity [6]: is not an inhibitor [-]

pKi [7]: 2.64
Compound: CC1=C(C(=O)O)N2C(=O)[C@@H](NC(=O)[C@H](N)c3ccccc3)[C@H]2SC1 [CEPHALEXIN ANHYDROUS]

Compound: Cc1onc(-c2ccccc2Cl)c1C(=O)N[C@@H]1C(=O)N2[C@@H]1SC(C)(C)[C@@H]2C(=O)O [CLOXACILLIN]
Activity [8]: inhibitor [(at a rough estimate) 5 % of control]

Compound: CC(C)(O/N=C(\C(=O)N[C@@H]1C(=O)N2C(C(=O)[O-])=C(C[n+]3ccccc3)CS[C@H]12)c1csc(N)n1)C(=O)O [CEFTAZIDIME]
Activity [9]: inhibitor [(at a rough estimate) 45 % of control]

Compound: NC(=O)c1cc[n+](CC2=C(C(=O)O)N3C(=O)[C@@H](NC(=O)[C@@H](c4ccccc4)S(=O)(=O)[O-])[C@H]3SC2)cc1 [CEFSULODIN]
Activity [10]: inhibitor [(at a rough estimate) 10 % of control]

Compound: CC1(C)S[C@@H]2[C@H](NC(=O)[C@H](N)c3ccc(O)cc3)C(=O)N2[C@H]1C(=O)O [AMOXICILLIN]
Activity [11]: inhibitor [(at a rough estimate) 20 % of control]

Compound: CCN1CCN(C(=O)N[C@@H](C(=O)N[C@@H]2C(=O)N3[C@@H]2SC(C)(C)[C@@H]3C(=O)O)c2ccccc2)C(=O)C1=O [PIPERACILLIN]
Activity [12]: inhibitor [(at a rough estimate) 5 % of control]

Activity [13]: is not an inhibitor [-]
Compound: [H]/N=C(/N)N[C@H]1[C@H](O)[C@@H](O)[C@H](O[C@@H]2O[C@@H](C)[C@](O)(C=O)[C@H]2O[C@@H]2O[C@@H](CO)[C@H](O)[C@@H](O)[C@@H]2NC)[C@@H](N/C(N)=N\[H])[C@@H]1O [STREPTOMYCIN]

Compound: O=C(N[C@H](CO)[C@H](O)c1ccc([N+](=O)[O-])cc1)C(Cl)Cl [CHLORAMPHENICOL]
Activity [14]: inhibitor [(at a rough estimate) 75% of control]
